Drawing on article PMC8645336, “Benchmarking a highly selective USP30 inhibitor for enhancement of mitophagy and pexophagy” (Life Science Alliance, 2021), this text covers remaining activity for 1 compound.

SMILES strings stand for the structures.

One assay has as its target T1, OTUD3 (Homo sapiens, UniProt Q5T2D3).
T1 sequence (Q5T2D3 1-398): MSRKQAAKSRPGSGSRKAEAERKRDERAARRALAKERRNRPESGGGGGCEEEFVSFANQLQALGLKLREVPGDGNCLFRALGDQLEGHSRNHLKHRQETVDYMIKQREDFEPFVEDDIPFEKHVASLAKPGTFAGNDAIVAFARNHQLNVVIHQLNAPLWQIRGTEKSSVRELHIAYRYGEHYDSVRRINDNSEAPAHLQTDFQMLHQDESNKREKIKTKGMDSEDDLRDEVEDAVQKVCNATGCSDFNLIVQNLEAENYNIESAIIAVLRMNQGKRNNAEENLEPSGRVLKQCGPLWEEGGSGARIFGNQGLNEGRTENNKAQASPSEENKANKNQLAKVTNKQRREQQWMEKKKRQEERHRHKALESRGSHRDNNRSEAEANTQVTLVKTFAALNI
As to the kind of experiment: biochemical. Also on record: Ubiquigent DUB profiler selectivity panel, remaining enzyme activity as % of control. The following applies: read-out: % of control remaining. The method in brief:
(§1)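 In YFP-PRKN-overexpressing hTERT-RPE1 cells, 1 h antimycin A plus oligomycin A (1 μM each) with CMPD-39, then Western blot of TOMM20 ubiquitylation. Target engagement: 2 h compound, then 10 min HA-Ub-PA at 37°C, read as USP30 shift. DUB panel (>40 enzymes) screened at 1-100 μM.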

Another assay has as its target T2, USP4 (Homo sapiens, UniProt Q13107).
T2 sequence (Q13107 1-963): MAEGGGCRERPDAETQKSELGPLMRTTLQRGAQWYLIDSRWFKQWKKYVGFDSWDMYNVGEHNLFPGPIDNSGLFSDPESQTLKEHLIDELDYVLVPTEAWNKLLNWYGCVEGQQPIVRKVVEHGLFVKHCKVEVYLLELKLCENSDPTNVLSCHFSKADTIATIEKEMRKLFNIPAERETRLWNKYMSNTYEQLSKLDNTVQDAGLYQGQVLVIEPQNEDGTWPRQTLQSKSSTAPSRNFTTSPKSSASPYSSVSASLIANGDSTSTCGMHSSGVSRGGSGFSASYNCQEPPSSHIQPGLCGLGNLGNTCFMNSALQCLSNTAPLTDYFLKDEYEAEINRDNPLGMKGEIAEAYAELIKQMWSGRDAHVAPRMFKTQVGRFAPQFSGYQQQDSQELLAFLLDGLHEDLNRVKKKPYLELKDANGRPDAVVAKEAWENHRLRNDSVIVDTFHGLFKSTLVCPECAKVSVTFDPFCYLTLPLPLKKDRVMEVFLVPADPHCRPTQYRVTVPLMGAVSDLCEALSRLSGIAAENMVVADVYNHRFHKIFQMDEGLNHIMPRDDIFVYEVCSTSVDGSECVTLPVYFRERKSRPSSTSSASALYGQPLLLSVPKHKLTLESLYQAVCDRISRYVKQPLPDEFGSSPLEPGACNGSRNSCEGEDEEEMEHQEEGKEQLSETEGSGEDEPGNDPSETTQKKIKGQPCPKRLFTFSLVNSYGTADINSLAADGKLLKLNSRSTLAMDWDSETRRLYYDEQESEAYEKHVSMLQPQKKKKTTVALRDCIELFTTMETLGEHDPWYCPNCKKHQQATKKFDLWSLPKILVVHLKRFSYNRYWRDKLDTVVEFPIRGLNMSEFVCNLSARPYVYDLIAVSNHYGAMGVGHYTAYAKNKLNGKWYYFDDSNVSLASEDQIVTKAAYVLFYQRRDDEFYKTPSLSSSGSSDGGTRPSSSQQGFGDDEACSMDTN
As to the kind of experiment: biochemical. Also on record: Ubiquigent DUB profiler selectivity panel, remaining enzyme activity as % of control. The following applies: read-out: % of control remaining. The method in brief:
as §1

As for `CC(C)(C)NS(=O)(=O)c1ccc(NC(=O)[C@H](Cc2ccccc2)NC(=O)c2ccc(F)cc2)cc1` [compound 39, CMPD-39], at OTUD3, the remaining activity at 1 µM was determined as 105%, the remaining activity at 10 µM was found to be 101% and the remaining activity at 100 µM turned out to be 107%. Moreover, at USP4, the remaining activity at 1 µM came out at 107%, the remaining activity at 10 µM came to 103% and the remaining activity at 100 µM turned out to be 98.9%.
